≈ marks a conversion by molar mass, not a printed value. Where two headings read alike, the source gives them in different places.
How the values were obtained:
[1] = test system: HuVEC cells; assay: Microtubule (tubulin) depolymerization, α-tubulin staining; settings: for microtubule depolymerization in HuVEC cells: 2 μM, thirty minutes exposure
Experimental: The plates were returned to the incubator for 2 days.
20 mM stock solutions of compounds were prepared in 100% DMSO and stored at −80° C. 400× concentrated dilutions of the compounds were prepared in 100% DMSO. 5 μl volumes of the dilutions were added to individual wells resulting in a final concentration of 20 nM. […] The plates were returned to the incubator for 30 minutes.
The cells were rinsed in dPBS before fixation in 10% (v/v) neutral buffered formalin for 10 minutes at room temperature. Following fixation, α-tubulin was visualized by indirect immunofluorescence. Specifically, the cells were permeabilized in 0.2% (v/v) triton X-100/dPBS for 10 minutes. The cells were washed prior to transferring the coverslips to a humidified chamber, the coverslips were blocked for two hours in antibody buffer [2% (w/v) BSA/0.1% (v/v) Tween 20/dPBS]. The coverslips were incubated with 50 μl of 0.1 μg/ml mouse α-tubulin (Molecular Probes) in antibody buffer for 1 hour before washing and incubation with 50 μl of 1 μg/ml goat anti-mouse FITC (Jackson ImmunoResearch Laboratories) for one hour in the dark. Finally, the cells were washed and treated with 2 μg/ml DAPI (Molecular Probes) for 10 minutes before rinsing in H2O and mounting with Vectashield (Vector Labs) mounting media. The cells were imaged using a 60× oil immersion objective on an upright microscope (Olympus BX51). The images were digitally captured using a CCD camera and Magnafire 2.0 software (Olympus). Post image processing was performed in Photoshop Elements 2.0 (Adobe) and in Microsoft Powerpoint.
Human umbilical vein endothelial cells (HuVECs; Cambrex CC2519A) were maintained at subconfluent densities in EGM-2 (Cambrex) media. […] The plates were returned to the incubator for 2 days.
Stock (20 mM) solutions of the test compounds were prepared in 100% DMSO. 400× concentrated dilutions of the compounds were prepared in 100% DMSO. 5 μl volumes of the dilutions were added to individual wells resulting in a final concentration of 200 nM. […] The plates were returned to the incubator for 30 minutes.
The cells were rinsed in dPBS before fixation in 10% (v/v) neutral buffered formalin for 10 minutes at room temperature. Following fixation, α-tubulin was visualized by indirect immunofluorescence. Specifically, the cells were permeabilized in 0.2% (v/v) triton X-100/dPBS for 10 minutes. The cells were washed prior to transferring the coverslips to a humidified chamber, the coverslips were blocked for two hours in antibody buffer (2% (w/v) BSA/0.1% (v/v) Tween 20/dPBS). The coverslips were incubated with 50 μl of 0.1 μg/ml mouse α-tubulin (Molecular Probes) in antibody buffer for 1 hour before washing and incubation with 50 μl of 1 μg/ml goat anti-mouse FITC (Jackson ImmunoResearch Laboratories) for one hour in the dark. Finally, the cells were washed and treated with 2 μg/ml DAPI (Molecular Probes) for 10 minutes before rinsing in H2O and mounting with Vectashield (Vector Labs) mounting media. The cells were imaged using a 60× oil immersion objective on an upright microscope (Olympus BX51). The images were digitally captured using a CCD camera and Magnafire 2.0 software (Olympus). Post image processing was performed in Photoshop Elements 2.0 (Adobe) and in Microsoft Powerpoint.

[2] = test system: MCF7 cells (GFP-alpha-tubulin); assay: Microtubule dynamic instability in living MCF7 cells (time-lapse microscopy); format: cell-based, human; settings: concentrations effecting 25% or 50% of maximal mitotic block
[3] = test system: P22 rat sarcoma; assay: Tumor necrosis in the P22 rat sarcoma model; format: in vivo; settings: 7.5 and 15 mg/kg IP, 24 hours post-dose
Text: “A dose-escalation study of the novel vascular-targeting agent, ZD6126, in patients with solid tumors,” Proc Am Soc Clin Oncol 2002; 21:abstract 438; each of which is hereby incorporated by reference in its entirety.

[4] = test system: P22 rat sarcoma tumor blood flow; assay: Blood flow in the P22 rat sarcoma model with 125I-IAP; format: in vivo; settings: 15 mg/kg IP
Experimental: In contrast, blood flow in non-tumor tissues was affected to a much lesser extent at 1 hour (see FIG. 35).

[5] = test system: N202 mammary tumor vasculature; assay: Murine syngeneic pseudo-orthotopic breast cancer model, dorsal skinflap chamber, vascular targeting
Text: A murine syngeneic “pseudo-orthotopic” breast cancer model was used to address these issues. […] To create the “pseudo-orthotopic milieu,” the coverslip of a dorsal skinflap chamber was removed and small pieces of mammary fatpad from donor mice were implanted into the chamber. On top of the fatpad graft, tumor spheroids containing N202 mammary tumor cells transduced with Histone (H2B)-green fluorescent protein (GFP) were applied. The use of H2B-GFP transduced cells allows for visualizing tumor growth and monitoring mitosis and apoptosis.
Fluorescence video microscopy allows for the relatively non-invasive study of tumor microcirculation in conscious mice.
Tumor area, blood flow rate, and vascular density within and surrounding the tumor were visualized. Real-time observations were recorded at various time-points using still photos and video microscopy.

[6] = test system: Jurkat cells (human T cell leukemia line); assay: DNA fragmentation (DNA laddering) by gel electrophoresis; format: cell-based
Text: A late stage characteristic of apoptosis is internucleosomal DNA cleavage that results in a distinctive ladder pattern that can be visualized by gel electrophoresis.

[7] = test system: Trichophyton rubrum; assay: Antifungal susceptibility testing (NCCLS M38-A), MIC/MFC; format: cell-based; settings: for antifungal potency compared with griseofulvin: dermatophyte isolates
Experimental: (§1) Specifically, disclosed compounds were evaluated alongside commercially available microtubulin inhibitors as well as recognized antifungal agents.
(§2) Microorganisms against which these compounds were tested included: Candida albicans, Candida glabrata, Aspergillus fumigatus, Trichophyton rubrum, Trichophyton mentagrophytes, Epidermophyton floccosum. With the exception of Candida glabrata (one isolate), two isolates of each species were tested.
(§3) The minimum lethal concentration (MLC) was determined by plating […] from the MIC concentration and each concentration above the MIC. […] When a MIC was obtained, a minimum fungicidal concentration (MFC) was determined to assess the fungistatic/fungicidal nature of the compound.

[8] = test system: PC-3 prostatic adenocarcinoma cells; assay: Tumor cytotoxicity assay, resazurin fluorescence, 48 h; format: cell-based; settings: Homo sapiens, Table 1
Experimental: 10× concentrated serial dilutions of the two compounds were prepared in appropriate culture medium for final concentrations ranging from 2.0×10^−5 M to 2.0×10^−10 M. Ten μl volumes of the 10× serial dilutions were added to the test wells in triplicate and the plates returned to the incubator for 48 hours.
Resazurin dye without cells was used to determine the background, which was subtracted from the data for all experimental wells. The data were analyzed using Prism software (GraphPad Software).
PC-3, a human prostate adenocarcinoma, was maintained in F12K complete medium (F12K medium supplemented with 10% FBS; 2 mM Glutamine; 1% HEPES; and Pen/Strep at 100 IU/ml and 100 μg/ml, respectively).
20 mM stock solutions of compounds were prepared in 100% DMSO and stored at −80° C. […] Ten μl volumes of the 10× serial dilutions were added to the test wells in triplicate and the plates returned to the incubator for 48 hours.

[9] = test system: Trichophyton mentagrophytes; assay: Antifungal susceptibility testing (NCCLS M38-A), MIC/MFC; format: cell-based
Experimental: Specifically, disclosed compounds were evaluated alongside commercially available microtubulin inhibitors as well as recognized antifungal agents. […].
as §2
Drug concentrations were 0.03-16 μg/ml for the investigational compounds, 0.015-8 μg/ml for itraconazole and griseofulvin.
as §3, with “compound. […] The compound is scored as fungistatic if the cells are able to resume growth and fungicidal if no regrowth is possible because the compound had killed the organisms.” for “compound.”

[10] = test system: HT-29 human colon cells; assay: Tumor cytotoxicity / cell growth inhibition assay, resazurin fluorescence, 48 h; format: cell-based
[11] = test system: Candida albicans; assay: Antifungal susceptibility testing (NCCLS M38-A), MIC/MFC; format: cell-based; settings: Table 23
Experimental: as §1, §2, §3

[12] = test system: Candida glabrata; assay: as above; format: cell-based; settings: Table 23
Experimental: as §1, §2, §3

[13] = test system: human hepatic P450s
Experimental: In the recent his study, (±)-phenylahistin was treated with rat hepatic microsome or human hepatic P450s.

[14] = Physicochemical stability, Z to E migration under light; settings: visible light, normal room light
Experimental: The physicochemical stability is one of the unfavorable problems of dehydroPLH. In phenylahistin, since there is no additional olefin structure at the benzyl part, there is no such problem. […] In the cytotoxic assay, some of the compounds migrate to E-form during the incubation, although this migration probably equilibrates at the 1:1 ratio in the case of dehydroPLH. This migration can be controlled.

[15] = test system: MCF-7 human breast tumor; assay: MCF-7 Human Breast Tumor Xenograft Model; format: in vivo, mice; settings: combination with taxotere
Experimental: Animals used were (exceptions are indicated for individual studies): female nude mice (nu/nu) between 5 and 6 weeks of age (˜20 g, Harlan); group size was 9-10 mice per group unless otherwise indicated.
Female nude mice (˜20 g) were implanted s.c. with 21-day release estrogen (0.25 mg) pellets 24 hours prior to the s.c. implantation with MCF-7 tumor fragments (harvested from s.c. tumors in nude mice hosts). The study then proceeded as described for the HT-29 model, using taxotere as the standard chemotherapy agent.
In this model unless otherwise noted for the individual study, the novel compounds were injected via the intraperitoneal route daily on Days 1-5, inclusive (qdx5); taxotere was administered intravenously on Days 1, 3 and 5 (qodx3).
The doses of the compounds were administered on Days 1, 2, 3, 4, and 7; Taxotere was administered on Days 1, 3 and 7.

[16] = test system: MES-SA/Dx5 (Taxol resistant) human uterine sarcoma; assay: Cytotoxicity / growth inhibition in multidrug resistant uterine sarcoma cells; format: cell-based; settings: for IC50: Table 13, III
Experimental: 1) Human Uterine Sarcoma Tumor Cell Line Pair: MES-SA (Taxol Sensitive) and MES-SA/Dx5 (Taxol Resistant).
HL-60 and HL-60/MX2 cells were both seeded at 5×10^4 cells/well in 90 μl complete media into 96 well plates on the day of compound addition. […] Ten μl volumes of the 10× serial dilutions were added to the test wells in triplicate and the plates returned to the incubator for 48 hours.
Resazurin dye in medium without cells was used to determine the background, which was subtracted from the data for all experimental wells.
The multidrug resistant MES-SA/Dx5 tumor cell line was derived from the human uterine sarcoma MES-SA tumor cell line and expresses elevated P-Glycoprotein (P-gp), an ATP dependent efflux pump. […] Paclitaxel, a known substrate of the P-gp pump was included as a control.

[17] = test system: HuVEC monolayer; assay: HuVEC monolayer permeability to FITC-Dextran; format: cell-based, human
Experimental: The enhanced permeability of HuVEC cells to a fluorescent-labeled dextran is used as a proxy assay for vascular collapse.
Human umbilical vein endothelial cells (HuVECs; Cambrex CC2519A) were maintained at subconfluent densities in EGM-2 (Cambrex) media. […] For monolayer permeability assays, HuVEC cells were seeded at 1×10^5 cells/ml in EGM-2 media on Fibronectin-coated 3.0 μm Fluoroblok inserts (Becton Dickinson) in 24-well plates. The plates were returned to the incubator for 4 days to allow the cells to reach confluency.
Stock solutions (20 mM) of the test compounds were prepared in 100% DMSO. 10× concentrated serial dilutions of the compounds were prepared in EGM-2. 10 μl volumes of the serial dilutions were added to the test inserts in duplicate resulting in final concentrations ranging from 2 μM to 2 nM.
The final concentration of FITC-Dextran was 1 mg/ml.

Q: Which results are given for `CC(C)(C)c1[nH]cnc1/C=c1\[nH]c(=O)/c(=C/c2ccccc2)[nH]c1=O` [KPU-02]?
A: tubulin depolymerization in HuVEC cells ([1]; 200 nM, 30 min): rapidly induce tubulin depolymerization; effect on MT dynamic instability [2]: did not have a measurable effect on MT dynamic instability; tumor necrosis [3]: dose-dependent tumor necrosis; tumor blood flow, % of vehicle ([4]; 1 hour after administration): 23%; tumor blood flow, % vehicle ([4]; 24 hours): 59%; tolerability ([5]; i.v. infusion 5-10 mg/kg): well tolerated; effect on tumor vasculature ([5]; single i.v. treatment): rapid collapse of the central vasculature

Q: For `C=CC(C)(C)c1[nH]cnc1/C=c1\[nH]c(=O)/c(=C/c2ccccc2)[nH]c1=O` [KPU-1, Dehydrophenylahistin], which “DNA laddering, potency compared with KPU-2” value [6] is on record?
A: The value was “much less potent”.

Q: What about the “potency versus T. rubrum” value [7] of the same compound?
A: Its value is “significantly less potent than the other compounds”.

Q: And the EC50 [8]?
A: Its EC50 is 5.4 nM.

Q: What about the “potency versus sensitive T. mentagrophytes isolate” value [9] of the same compound?
A: The value was “weaker but more comparable to the others”.

Q: For `C=CC(C)(C)c1[nH]cnc1/C=C1\NC(=O)[C@H](Cc2ccccc2)NC1=O` [(−)-Phenylahistin], which “potency versus T. rubrum” value [7] is on record?
A: The value was “significantly less potent than the other compounds”.

Q: What about the “potency versus sensitive T. mentagrophytes isolate” value [9] of the same compound?
A: Its value is “weaker but more comparable to the others”.

Q: With `COc1cc2c(c(OC)c1OC)-c1ccc(OC)c(=O)cc1[C@@H](NC(C)=O)CC2` [Colchicine] as the compound, how does the “microtubule depolymerization in HuVEC cells” value (shortened to “microtubule depolymerization”) [1] read?
A: Its value is “induced microtubule depolymerization”.

Q: Which results are given for `COc1ccc(/C=c2\[nH]c(=O)/c(=C/c3nc[nH]c3C(C)(C)C)[nH]c2=O)c(OC)c1OC` [KPU-17, tBu-ΔPLH-2,3,4-TriOMe]?
A: antifungal potency compared with griseofulvin [7]: equivalent in potency or in some cases more potent than griseofulvin; cytotoxic activity against HT-29 cells [10]: also showed activity

Q: Which “MFC C. albicans 10231” value [11] does the source give for `C[C@@H]1[C@H](O)[C@@H](C)/C=C/C=C/C=C/C=C/C=C/C=C/C=C/[C@H](O[C@@H]2O[C@H](C)[C@@H](O)[C@H](N)[C@@H]2O)C[C@@H]2O[C@](O)(C[C@@H](O)C[C@@H](O)[C@H](O)CC[C@@H](O)C[C@@H](O)CC(=O)O[C@H]1C)C[C@H](O)[C@H]2C(=O)O` [amphotericin B, Amphotericin B] here?
A: Its value is 0.5 µg/mL (≈ 0.541 µM).

Q: And the “MFC C. albicans 90028” value [11]?
A: The value was 0.5 µg/mL (≈ 0.541 µM).

Q: And the “MIC C. albicans 10231” value [11]?
A: Its value is 0.5 µg/mL (≈ 0.541 µM).

Q: What about the “MIC C. albicans 90028” value [11] of the same compound?
A: Its value is 0.5 µg/mL (≈ 0.541 µM).

Q: What about the “MFC C. glabrata” value [12] of the same compound?
A: The value was 1 µg/mL (≈ 1.08 µM).

Q: And the “MIC C. glabrata” value [12]?
A: The value was 1 µg/mL (≈ 1.08 µM).

Q: For phenylahistin [halimide], which “DNA laddering, potency compared with KPU-2” value [6] is on record?
A: Its value is “much less potent”.

Q: With (±)-phenylahistin as the compound, how does the “metabolites detected” value [13] read?
A: The value was “at least seven metabolites were detected”.

Q: And the “share of major metabolites P1 and P3 in recovered metabolites” value [13]?
A: Its value is “more than 60%”.

Q: Which “Z to E migration” value [14] does the source give for `C=CC(C)(C)c1[nH]cnc1/C=c1\[nH]c(=O)/c(=C/c2ccccc2)[nH]c1=O` [dehydroPLH, dehydrophenylahistin] here?
A: Its value is “Z to E migration frequently occurs”.

Q: For `CC(C)(C)c1[nH]cnc1/C=C1\NC(=O)[C@H](Cc2ccccc2)NC1=O` [t-butyl-phenylahistin], which “antifungal potency compared with griseofulvin” value [7] is on record?
A: Its value is “equivalent in potency or in some cases more potent than griseofulvin”.

Q: And the “microtubule depolymerization” value [1]?
A: The value was “induced microtubule depolymerization”.

Q: And the “effect on estimated tumor growth with taxotere” value [15]?
A: Its value is “significant potentiation of taxotere”.

Q: What about the “potency in resistant MES-SA/DX5 versus sensitive MES-SA line” value [16] of the same compound?
A: Its value is “only slightly reduced”.

Q: Which “antifungal potency compared with griseofulvin” value [7] does the source give for `COc1cc(/C=c2\[nH]c(=O)/c(=C/c3nc[nH]c3C(C)(C)C)[nH]c2=O)cc(OC)c1OC` [KPU-11, tBu-ΔPLH-3,4,5-triOMe] here?
A: Its value is “equivalent in potency or in some cases more potent than griseofulvin”.

Q: What about the “cytotoxic activity against HT-29 cells” value [10] of the same compound?
A: The value was “also showed activity”.

Q: For `CC(=O)O[C@H]1C(=O)[C@@]2(C)[C@H]([C@H](OC(=O)c3ccccc3)[C@]3(O)C[C@H](OC(=O)[C@H](O)[C@@H](NC(=O)c4ccccc4)c4ccccc4)C(C)=C1C3(C)C)[C@]1(OC(C)=O)CO[C@@H]1C[C@@H]2O` [Taxol], which “microtubule depolymerization” value [1] is on record?
A: The value was “did not induce microtubule depolymerization”.

Q: And the “HuVEC monolayer permeability” value [17]?
A: Its value is “inactive”.

Q: And the “potency in resistant MES-SA/DX5 versus sensitive MES-SA line” value [16]?
A: Its value is “virtually inactive”.

Q: And the IC50 ([16]; cyclosporin A pretreatment, Study II, read-out: MES-SA/DX5 Resistant, CsA Pretreat, IC50 nM)?
A: Its IC50 is 40 nM.

Q: And the IC50 ([16]; no cyclosporin A, Study I, II, read-out: MES-SA/DX5 Resistant, No CsA, IC50 nM)?
A: Its IC50 is > 24000 nM.
